# Reference: ChEMBL document CHEMBL3603746, “Discovery of New H2S Releasing Phosphordithioates and 2,3-Dihydro-2-phenyl-2-sulfanylenebenzo[d][1,3,2]oxazaphospholes with Improved Antiproliferative Activity” (J Med Chem, 2015)
# Experiments:
# [1] = Induction of H2S release in 10% PBS:MeCN solution at 5 mM incubated at 22 degC in dark condition measured at 96 hrs by 2, 6-dansyl azide probed-based fluorescence assay relative to control; settings: buffer, 5000 µM
# [2] = Induction of H2S release in 10% PBS:MeCN solution at 5 mM incubated at 37 degC in dark condition measured at 96 hrs by 0.2 mM 2, 6-dansyl azide probed-based fluorescence assay relative to control; assay type: physicochemical; settings: buffer, 5000 µM
# [3] = Induction of H2S release in 10% PBS:MeCN solution assessed as ratio of H2S level at 37 degC to H2S level at 22 degC at 5 mM incubated in dark condition measured at 96 hrs by 2, 6-dansyl azide probed-based fluorescence assay; settings: buffer, 5000 µM
# [4] = Induction of H2S release in 10% PBS:MeCN solution at 5 mM incubated at 22 degC in dark condition measured at 96 hrs by 2, 6-dansyl azide probed-based fluorescence assay relative to GYY4137; assay type: physicochemical; settings: buffer, 5000 µM
# [5] = Induction of H2S release in 10% PBS:MeCN solution at 5 mM incubated at 37 degC in dark condition measured at 96 hrs by 2, 6-dansyl azide probed-based fluorescence assay relative to GYY4137; assay type: physicochemical; settings: buffer, 5000 µM
# MCF7 [6] = test: Cytotoxicity against human MCF7 cells assessed as inhibition of cell proliferation after 4 days by crystal violet assay; assay type: functional, cell-based; settings: MCF7, 96 h
# MCF7 [7] = test: cells; assay type: functional, cell-based; settings: Homo sapiens, MCF7, 72 h
# Description: Cytotoxicity against human MCF7 cells assessed as inhibition of cell proliferation after 72 hrs by MTT assay
# MDA-MB-231 = test: cells; assay type: functional, cell-based; settings: Homo sapiens, MDA-MB-231, 72 h
# Description: Cytotoxicity against human MDA-MB-231 cells assessed as inhibition of cell proliferation after 72 hrs by MTS assay
# PC-3 = test: cells; assay type: functional, cell-based; settings: Homo sapiens, PC-3, 72 h
# Description: Cytotoxicity against human PC3 cells assessed as inhibition of cell proliferation after 72 hrs by MTT assay
# [8] = Toxicity in human WI38 cells assessed as inhibition of cell proliferation after 4 days by crystal violet assay
# [9] = Therapeutic index, ratio of IC50 for human WI38 cells to IC50 for human MCF7 cells; settings: WI38 cells and MCF7 cells
# [10] = Therapeutic index, ratio of IC50 for human WI38 cells to IC50 for human SKOV3 cells; settings: WI38 cells and SKOV3 cells
# [11] = Therapeutic index, ratio of IC50 for human WI38 cells to IC50 for human MBA-MD-231 cells; settings: WI38 cells and MBA-MD-231 cells
# [12] = Therapeutic index, ratio of IC50 for human WI38 cells to IC50 for human PC3 cells; settings: WI38 cells and PC3 cells
# SK-OV-3 = test: Cytotoxicity against human SKOV3 cells assessed as inhibition of cell proliferation after 4 days by crystal violet assay; assay type: functional, cell-based; settings: SK-OV-3, 96 h
# [13] = Induction of H2S release in 10% PBS:MeCN solution at 1 mM incubated at 22 degC in dark condition measured at 72 hrs by 2, 6-dansyl azide probed-based fluorescence assay; assay type: physicochemical; settings: buffer, 1000 µM
# [14] = Induction of H2S release in 10% PBS:MeCN solution at 100 uM incubated at 37 degC in dark condition measured at 72 hrs by 2, 6-dansyl azide probed-based fluorescence assay; assay type: physicochemical; settings: buffer
# [15] = Induction of H2S release in 10% PBS:MeCN solution at 5 mM incubated at 37 degC in dark condition measured at 96 hrs by 1 mM 2, 6-dansyl azide probed-based fluorescence assay relative to control; settings: buffer, 5000 µM
# [16] = Induction of H2S release in aqueous acetonitrile solution at 200 uM measured over 4 days by probe 21-based fluorescence assay; settings: buffer, 96 h
# [17] = Induction of H2S release in aqueous acetonitrile solution at 400 uM measured over 4 days by probe 21-based fluorescence assay; settings: buffer, 96 h
# [18] = Effective permeability of the compound at 500 uM after 6 hrs by PAMPA
# [19] = Effective permeability of the compound at 500 uM after 16 hrs by PAMPA
# physchem = settings: DMSO, pH 7.4
# Description: Kinetic solubility of the compound in DMSO at pH 7.4 measured at 24 hrs by multiscreen filter paper-based UV absorbance analysis
# Hepatocyte = test: Toxicity in transforming growth factor alpha transgenic mouse hepatocytes at 100 uM after 24 hrs by CellTiter-Glo cell viability assay; assay type: cell-based
Compound,%max [1] [%],%max [2] [%],Ratio [3],fold change (FC) [4],fold change (FC) [5],IC50 (MCF7 [6]) [µM],IC50 (MCF7 [7]) [µM],IC50 (MDA-MB-231) [µM],IC50 (PC-3) [µM],IC50 at 4 days [8] [µM],selectivity ratio [9],selectivity ratio [10],selectivity ratio [11],selectivity ratio [12],IC50 (SK-OV-3) [µM],Activity [13] [µM],Activity [14],other results
C1COCCN1.CCCCOP(=S)(S)c1ccc(OC)cc1 (centres undefined),0.04,0.12,3.2,< 0.1,< 0.1,92,193,77.6,79.1,177,1.1,1.1,1.1,1.1,–,–,–,–
COc1ccc(P2(=S)Nc3cc(OC)ccc3O2)cc1 (centres undefined),–,–,–,–,–,39.4,–,–,–,115,2.9,2.9,–,–,30.2,–,–,Activity ([13]; BLD = below limit of detection): BLD; Activity ([14]; BLD = below limit of detection): BLD
COc1ccc(P(=S)(S)NCc2ccccc2)cc1.NCc1ccccc1 (centres undefined),2.19,–,2.3,1.5,0.8,84.2,82.4,41.1,31.9,208,2.3,2.3,2.3,2.3,89.9,–,–,%max [15]: 5.07%; Activity [16]: 5.55 µM; Activity [17]: 10.29 µM
COc1ccc(P2(=S)Oc3ccccc3N2C)cc1 (centres undefined),–,–,–,–,–,42.6,–,–,–,92.5,2.1,2.1,–,–,44.2,2.1,10.1 µM,–
COc1ccc(P2(=S)Nc3ccccc3O2)cc1 (centres undefined),–,–,–,–,–,37.1,–,–,–,94.4,2.5,2.5,–,–,38.1,48.3,42.7 µM,–
COc1ccc(P(=S)(S)OCCCN)cc1 (centres undefined),0.02,0.06,2.7,< 0.1,< 0.1,> 400,> 500,> 500,–,–,–,–,–,–,> 400,–,–,"Papp at 6 h, 500 µM ([18]; PAMPA): 0.07 nm/s; Papp at 16 h, 500 µM [19]: 0.027 nm/s; solubility kinetic at 24 h (physchem): > 0.28 mg/mL"
C1COCCN1.COP(=S)(S)c1ccc(Oc2ccccc2)cc1 (centres undefined),0.06,0.16,2.7,< 0.1,< 0.1,181,202,87,73.1,347,1.9,1.9,1.9,1.9,165,–,–,–
Fc1ccc2c(c1)NP(=S)(c1ccc(Oc3ccccc3)cc1)O2 (centres undefined),–,–,–,–,–,13.6,–,–,–,65.6,1.7,1.7,–,–,38.1,5,Not Active,–
C1COCCN1.COc1ccc(P(=S)(S)OC)cc1 (centres undefined),0.06,0.15,2.5,< 0.1,< 0.1,450,446,216,> 200,–,–,–,–,–,430,–,–,"Activity (Hepatocyte): Non-toxic; Peff ([18]; pampa, 6 h, 500 µM): 0.003 ×10⁻⁷ cm/s; Papp at 16 h, 500 µM [19]: 0.031 nm/s"
